Where “and” joins values, the source holds several entries; their conditions need not be identical. Identical values can stand only once.
Columns and labels:
[1] = Glucose tolerance test on healthy volunteers; assay type: in vivo, human
From the text: The data is as provided under table 21 and reflects that the sweetener compositions of the present invention are safer to use even for healthy individuals as compared to artificial sweeteners.
Observations of glucose tolerance test on healthy volunteers were made after the consumption of the sweetener composition containing glucose oxidase enzyme, as per the embodiment of the present invention and in comparison, to known artificial sweetener product having artificial sweetener sucralose and bulking agent dextrose monohydrate.

[2] = Calorific value by Bomb calorimeter; assay type: physicochemical
Description: Known sweetener compositions based on artificial sweeteners such as sucralose or Acesulfame K along with natural sugar substitute compositions including stevia, sugar, glucose and sucrose, were compared with the sweetener or the nutraceutical compositions containing glucose oxidase enzyme for their calorific values. The calorific values are determined using Bomb calorimeter.

[3] = Effect on body weight and muscle mass in type 2 diabetic patients; assay type: in vivo, human; details: type 2 diabetic patient, dose 25 gms per day
Description: Six type 2 diabetic patients were randomly administered the Glucose oxidase containing sweetener composition as per the embodiment of the present invention for […], 5 patients were administered sugar and compositions containing natural sugar substitute (stevia based) based sweeteners, or artificial sweeteners based on Sucralose or Acem or compositions containing dietary fibres with saccharides, dietary fibres with sugar alcohols and dietary fibres with sugar alcohols and saccharides, the details of which are as set forth in the Table below. One patient was not given any composition. Before the onset of the study (week 0) and after 2 months, weight measurements were taken.

buccal epithelial cells = experiment: Non invasive micronucleus assay for oxidative stress in diabetic individuals; assay type: in vivo, human; details: dose 40 gms (0.005 gms for the drugs)
From the text: Known pharmaceutical/nutraceutical compositions as well as other artificial sweeteners were compared to the pharmaceutical composition including the glucose oxidase enzyme of the invention for controlling oxidative stress in diabetic individuals.
Micronucleus is a small nucleus (also known as erratic or third nucleus), present in the cytoplasm of the cell. Formation of micronuclei indicates oxidative stress and genetic damage. The micronucleus assay using scraped buccal epithelial cells is an easy and non-invasive assay to estimate oxidative stress.
The results of the Non Invasive Micronucleus Assay, using buccal epithelial cells were tabulated as follows: […]

O.O=C[C@H](O)[C@@H](O)[C@H](O)[C@H](O)CO [Dextrose monohydrate]
Blood Sugar After 2 hrs ([1]; 2 hrs after 75 gms in 200 ml of water, individual values, monohydrate): 141 and 149 (3×) and 160 (3×) and 156 (2×) and 170 and 175 and 150 and 145 and 158 and 169 and 154 and 159 and 157 and 164 and 161
Blood Sugar After 2 hrs, Average/20 respondents ([1]; after 2 hrs, 75 gms in 200 ml of water, average of 20 respondents): dents- 157.1
Blood Sugar Initial ([1]; before drinking 75 gms in 200 ml of water, individual values, monohydrate): 80 and 79 and 97 and 96 and 100 (2×) and 105 (2×) and 104 (2×) and 86 and 89 and 98 and 102 (2×) and 87 and 95 and 99 and 103 and 93
Blood Sugar Initial, Average/20 respondents ([1]; initial, average of 20 respondents): dents- 92.2

OC[C@H]1OC(O)[C@H](O)[C@@H](O)[C@@H]1O (stereo partly drawn) [Glucose]
Calories/100 g [2]: 400 Calories/100 g

OC[C@H]1O[C@H](O[C@]2(CCl)O[C@H](CCl)[C@@H](O)[C@@H]2O)[C@H](O)[C@@H](O)[C@H]1Cl [Sucralose]
Glycemic Response ([1]; conclusion in words): respond almost in the same manner as that of Glucose

OC[C@H]1O[C@@](CO)(O[C@H]2O[C@H](CO)[C@@H](O)[C@H](O)[C@H]2O)[C@@H](O)[C@@H]1O [Sugar]
Initial Body weight ([3]; baseline (week 0)): 60 Kgs
Body weight (after two months) [3]: 62.5 Kgs
Muscle mass increase in % over three months [3]: No change
Calories/100 g [2]: 400 Calories/100 g
Oxidative stress Values (% of cells containing micronuclei) before administration (buccal epithelial cells; baseline): 5.0 % of cells containing micronuclei
Oxidative stress Values (% of cells containing micronuclei) one month after administration (buccal epithelial cells): 7 % of cells containing micronuclei

Reference: patent publication US11202821B2, “Glucose oxidase compositions” (VEGANUTRITECH LLP, priority 2016, dated 2021)
